Where no end group is shown, it is not given here.
Legend:
Test in all cases: MATRIX screen against PDZ library (modified G assay)
Type in all cases: binding
Conditions in all cases: pre-incubation conditions
[1] = molecular target: T1, EBP50 (Homo sapiens, UniProt O14745)
T1 construct: made in house
Method: (§1) Matrix graphPeptides and proteins were tested in an array format constituting a near complete set (255) of all the different PDZ domains in the human genome. Each PDZ domain polypeptide was expressed as a recombinant GST-PDZ polypeptide in a commercial glutathione S-transferase tagged expression system. Specific binding of biotinylated-PL peptides to PDZ domain polypeptides was detected using streptavidin-HRP and TMB substrate. Similarly, specific binding of PL protein-MBP fusion proteins to PDZ domain polypeptides was visualized using biotinylated anti-MBP, streptavidin-HRP and TMB substrate. The relative strength of binding was analyzed and the strong and weak binders are shown for each PL. A PDZ protein that binds more strongly is preferable when used for capturing or identifying PL proteins.
(§2) Two different types of ELISA assays were used to test the HIV Peptides 1904 and 1905. The primary MATRIX screen against all PDZ proteins in the library was performed under pre-incubation conditions, which are a modification of the G assay. A pre-incubation assay incubates the peptide with the HRP-streptavidin before addition of the mixture to the PDZ-coated plate. The subsequent titrations of the peptide against the PDZs of interest were performed under normal ELISA G assay conditions. In normal conditions the peptide is incubated on the PDZ coated plate before the later addition of the HRP-streptavidin. The reagents and supplies for both assays are listed below, as well as the two different protocols.
(§3) The PRISM Matrix ELISA modified G Assay was also used for pre-incubation and for the MATRIX assay. The protocol was as follows.
(§4) 1. Coat plate with 100 μl of 5 μg/ml anti-GST, O/N @ 4° C.
(§5) 2. Dump contents out of plate and tap dry on paper towels
(§6) 3. Block with 200 μl Assay Buffer for 1 to 2 hrs at room temperature
(§7) 4. Prepare proteins in Assay Buffer
(§8) 5. Wash plate 3× with cold PBS*
(§9) 6. Add proteins at 50 μl per well, incubate 1 to 2 hrs at 4° C.
(§10) 7. Prepare peptides in Assay Buffer:
(§11) • Prepare peptides in half of volume need with double of desired concentration. • Dilute HRP (1:1000) in another half of volume (same volume with peptide) then mix with peptides. • Incubate the peptide-HRP mixtures for 20 minutes at RT 8. Wash plate 3× with cold PBS* 9. Add peptide-HRP mixtures at 50 μl per well (write time on plate) 10. Incubate at RT after last peptide has been added for exactly 30 minutes 11. Turn on plate reader and prepare files 12. Promptly wash plate 5× with room temperature PBS 13. Add 100 μl/well TMB substrate (write time on plate) 14. Incubate in dark at room temp for a maximum of 30 minutes 15. Stop reaction with 100 μl of 0.18M H2SO4, 30 min. after adding TMB 16. Take last reading at 450 nm soon after stopping reaction

[2] = molecular target: T2, EBP50 d1 (Homo sapiens, UniProt O14745)
T2 construct: made in house
T2 sequence (O14745 with tags, fused parts or gaps): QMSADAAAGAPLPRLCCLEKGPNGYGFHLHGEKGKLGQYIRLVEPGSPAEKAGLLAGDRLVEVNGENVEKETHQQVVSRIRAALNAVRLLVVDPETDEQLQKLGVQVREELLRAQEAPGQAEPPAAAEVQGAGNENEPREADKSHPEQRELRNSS
Method: as §1, §2, §3, §4, §5, §6, §7, §8, §9, §10, §11

[3] = molecular target: T3, PICK1 F.L. (Homo sapiens, UniProt Q9NRD5)
T3 construct: PICK1 F.L; made in house
T3 sequence (Q9NRD5 whole entry): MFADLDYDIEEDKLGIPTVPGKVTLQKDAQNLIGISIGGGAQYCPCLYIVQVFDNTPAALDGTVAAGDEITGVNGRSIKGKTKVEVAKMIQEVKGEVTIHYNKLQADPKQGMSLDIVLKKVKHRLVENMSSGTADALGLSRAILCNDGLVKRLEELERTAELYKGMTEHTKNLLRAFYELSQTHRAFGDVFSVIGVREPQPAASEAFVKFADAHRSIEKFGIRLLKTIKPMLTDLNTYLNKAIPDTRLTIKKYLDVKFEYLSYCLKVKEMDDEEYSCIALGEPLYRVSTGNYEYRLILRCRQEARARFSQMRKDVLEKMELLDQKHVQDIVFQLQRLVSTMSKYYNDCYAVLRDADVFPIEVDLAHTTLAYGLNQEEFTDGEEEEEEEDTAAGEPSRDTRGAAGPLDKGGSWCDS
Method: as §1, §2, §3, §4, §5, §6, §7, §8, §9, §10, §11

[4] = molecular target: T4, Shank 1 (Homo sapiens, UniProt Q9Y566)
T4 construct: made in house
T4 sequence (Q9Y566 with tags, fused parts or gaps): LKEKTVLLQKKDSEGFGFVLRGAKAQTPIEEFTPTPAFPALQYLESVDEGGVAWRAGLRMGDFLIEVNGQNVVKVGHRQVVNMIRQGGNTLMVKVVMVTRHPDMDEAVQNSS
Method: as §1, §2, §3, §4, §5, §6, §7, §8, §9, §10, §11

[5] = molecular target: T5, Shank 2 (Homo sapiens, UniProt Q9UPX8)
T5 construct: made in house
T5 sequence (Q9UPX8 with tags, fused parts or gaps): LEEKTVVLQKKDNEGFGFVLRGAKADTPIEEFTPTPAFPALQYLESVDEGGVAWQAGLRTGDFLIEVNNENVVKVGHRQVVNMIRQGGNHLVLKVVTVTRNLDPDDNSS
Method: as §1, §2, §3, §4, §5, §6, §7, §8, §9, §10, §11

[6] = molecular target: T6, Shank 3 (Homo sapiens, UniProt Q9BYB0)
T6 construct: made in house
T6 sequence (Q9BYB0 638-747): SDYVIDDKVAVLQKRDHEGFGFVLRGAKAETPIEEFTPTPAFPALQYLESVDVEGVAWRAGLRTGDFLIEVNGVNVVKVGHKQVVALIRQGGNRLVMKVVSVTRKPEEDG
Method: as §1, §2, §3, §4, §5, §6, §7, §8, §9, §10, §11

[7] = molecular target: T7, Tip (Homo sapiens, UniProt O14907)
T7 construct: made in house
T7 sequence (O14907 15-112): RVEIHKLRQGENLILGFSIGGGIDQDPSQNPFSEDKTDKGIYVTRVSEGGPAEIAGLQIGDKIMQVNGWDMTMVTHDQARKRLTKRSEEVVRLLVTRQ
Method: as §1, §2, §3, §4, §5, §6, §7, §8, §9, §10, §11

[8] = molecular target: T8, AIPC d1 (Homo sapiens, UniProt O15018)
T8 construct: made in house
T8 sequence (O15018 with tags, fused parts or gaps): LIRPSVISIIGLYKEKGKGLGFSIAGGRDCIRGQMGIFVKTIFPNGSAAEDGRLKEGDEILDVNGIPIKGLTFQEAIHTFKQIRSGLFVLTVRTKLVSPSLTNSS
Method: as §1, §2, §3, §4, §5, §6, §7, §8, §9, §10, §11

[9] = molecular target: T9, GORASP1 d1 (Homo sapiens, UniProt Q9BQQ3)
T9 construct: made in house
T9 sequence (Q9BQQ3 1-110): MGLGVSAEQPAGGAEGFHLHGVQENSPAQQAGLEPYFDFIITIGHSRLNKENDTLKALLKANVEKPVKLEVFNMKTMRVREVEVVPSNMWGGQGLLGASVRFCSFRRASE
Method: as §1, §2, §3, §4, §5, §6, §7, §8, §9, §10, §11

[10] = molecular target: T10, INADL d3 (Homo sapiens, UniProt Q8NI35)
T10 construct: made in house
T10 sequence (Q8NI35 with tags, fused parts or gaps): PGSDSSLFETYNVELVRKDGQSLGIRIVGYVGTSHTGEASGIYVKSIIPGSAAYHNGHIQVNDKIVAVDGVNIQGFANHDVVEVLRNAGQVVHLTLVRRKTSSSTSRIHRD
Method: as §1, §2, §3, §4, §5, §6, §7, §8, §9, §10, §11

[11] = molecular target: T11, KIAA0316 (Homo sapiens, UniProt Q14CM0, A161E)
T11 construct: made in house
T11 sequence (Q14CM0 with tags, fused parts or gaps A161E): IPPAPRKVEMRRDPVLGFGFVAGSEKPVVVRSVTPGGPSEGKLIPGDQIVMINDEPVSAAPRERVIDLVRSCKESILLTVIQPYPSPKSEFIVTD
Method: as §1, §2, §3, §4, §5, §6, §7, §8, §9, §10, §11

[12] = molecular target: T12, MINT1 d1, 2 (Homo sapiens, UniProt Q02410)
T12 construct: MINT1 d1, 2; made in house
T12 sequence (Q02410 651-828): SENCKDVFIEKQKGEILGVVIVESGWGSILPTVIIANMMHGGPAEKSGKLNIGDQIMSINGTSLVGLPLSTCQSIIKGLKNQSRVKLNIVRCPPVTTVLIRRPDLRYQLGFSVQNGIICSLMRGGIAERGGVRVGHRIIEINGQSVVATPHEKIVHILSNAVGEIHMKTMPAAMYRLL
Method: as §1, §2, §3, §4, §5, §6, §7, §8, §9, §10, §11

[13] = molecular target: T13, MUPP1d11 (Homo sapiens, UniProt O75970)
T13 construct: made in house
T13 sequence (O75970 1716-1813): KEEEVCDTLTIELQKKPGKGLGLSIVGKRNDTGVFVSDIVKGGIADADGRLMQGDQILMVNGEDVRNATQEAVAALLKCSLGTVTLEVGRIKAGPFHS
Method: as §1, §2, §3, §4, §5, §6, §7, §8, §9, §10, §11

[14] = molecular target: T14, MUPP1d3 (Homo sapiens, UniProt O75970)
T14 construct: made in house
T14 sequence (O75970 with tags, fused parts or gaps): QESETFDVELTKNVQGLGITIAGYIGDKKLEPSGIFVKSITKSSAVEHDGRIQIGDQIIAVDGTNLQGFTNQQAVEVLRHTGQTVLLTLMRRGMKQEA
Method: as §1, §2, §3, §4, §5, §6, §7, §8, §9, §10, §11

[15] = molecular target: T15, Magi1 d1 (Homo sapiens, UniProt Q96QZ7)
T15 construct: made in house
T15 sequence (Q96QZ7 with tags, fused parts or gaps): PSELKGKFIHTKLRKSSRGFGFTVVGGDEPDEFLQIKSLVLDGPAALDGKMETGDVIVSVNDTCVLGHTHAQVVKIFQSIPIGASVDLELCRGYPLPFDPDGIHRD
Method: as §1, §2, §3, §4, §5, §6, §7, §8, §9, §10, §11

[16] = molecular target: T16, NOS1 (Homo sapiens, UniProt P29475)
T16 construct: made in house
T16 sequence (P29475 11-100): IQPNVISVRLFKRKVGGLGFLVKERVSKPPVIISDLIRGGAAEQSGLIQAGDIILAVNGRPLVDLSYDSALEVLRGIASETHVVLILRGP
Method: as §1, §2, §3, §4, §5, §6, §7, §8, §9, §10, §11

[17] = molecular target: T17, PAR3L d3 (Homo sapiens, UniProt Q8TEW8)
T17 construct: made in house
T17 sequence (Q8TEW8 with tags, fused parts or gaps): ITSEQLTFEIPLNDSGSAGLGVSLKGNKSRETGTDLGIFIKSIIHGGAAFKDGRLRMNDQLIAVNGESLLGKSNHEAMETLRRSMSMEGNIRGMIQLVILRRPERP
Method: as §1, §2, §3, §4, §5, §6, §7, §8, §9, §10, §11

[18] = molecular target: T18, PAR6 beta (Homo sapiens, UniProt Q9BYG5)
T18 construct: made in house
T18 sequence (Q9BYG5 with tags, fused parts or gaps): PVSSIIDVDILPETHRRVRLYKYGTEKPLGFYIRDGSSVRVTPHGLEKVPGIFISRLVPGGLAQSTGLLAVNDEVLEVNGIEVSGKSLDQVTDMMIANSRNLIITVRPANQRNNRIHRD
Method: as §1, §2, §3, §4, §5, §6, §7, §8, §9, §10, §11

[19] = molecular target: T19, RIM2 (Homo sapiens, UniProt Q9UQ26)
T19 construct: made in house
T19 sequence (Q9UQ26 632-757): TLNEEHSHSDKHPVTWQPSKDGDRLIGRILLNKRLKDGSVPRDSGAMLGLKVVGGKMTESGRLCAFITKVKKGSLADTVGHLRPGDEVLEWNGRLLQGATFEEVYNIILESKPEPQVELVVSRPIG
Method: as §1, §2, §3, §4, §5, §6, §7, §8, §9, §10, §11

[20] = molecular target: T20, RhophilinLike (Homo sapiens, UniProt Q8TCX5)
T20 construct: made in house
T20 sequence (Q8TCX5 with tags, fused parts or gaps): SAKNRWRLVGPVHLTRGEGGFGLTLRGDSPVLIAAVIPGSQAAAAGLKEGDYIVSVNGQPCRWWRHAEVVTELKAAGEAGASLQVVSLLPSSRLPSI
Method: as §1, §2, §3, §4, §5, §6, §7, §8, §9, §10, §11

[21] = molecular target: T21, SITAC-18 d1 (Homo sapiens, UniProt Q9H190)
T21 construct: made in house
T21 sequence (Q9H190 104-195): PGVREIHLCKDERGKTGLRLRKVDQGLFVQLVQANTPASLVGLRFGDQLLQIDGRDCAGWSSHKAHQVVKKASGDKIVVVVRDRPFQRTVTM
Method: as §1, §2, §3, §4, §5, §6, §7, §8, §9, §10, §11

[22] = molecular target: T22, SITAC-18 d2 (Homo sapiens, UniProt Q9H190)
T22 construct: made in house
T22 sequence (Q9H190 with tags, fused parts or gaps): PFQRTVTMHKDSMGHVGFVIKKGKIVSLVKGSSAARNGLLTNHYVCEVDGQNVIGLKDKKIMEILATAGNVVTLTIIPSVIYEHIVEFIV
Method: as §1, §2, §3, §4, §5, §6, §7, §8, §9, §10, §11

[23] = molecular target: T23, ZO-1 d4 (Homo sapiens, UniProt Q07157)
T23 construct: ZO-1 d4; made in house
T23 sequence (Q07157 178-269 limits assumed): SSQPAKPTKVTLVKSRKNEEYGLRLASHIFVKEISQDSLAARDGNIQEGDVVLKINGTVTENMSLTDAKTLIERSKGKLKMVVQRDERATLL
Method: as §1, §2, §3, §4, §5, §6, §7, §8, §9, §10, §11

T1 sequence (O14745 whole entry): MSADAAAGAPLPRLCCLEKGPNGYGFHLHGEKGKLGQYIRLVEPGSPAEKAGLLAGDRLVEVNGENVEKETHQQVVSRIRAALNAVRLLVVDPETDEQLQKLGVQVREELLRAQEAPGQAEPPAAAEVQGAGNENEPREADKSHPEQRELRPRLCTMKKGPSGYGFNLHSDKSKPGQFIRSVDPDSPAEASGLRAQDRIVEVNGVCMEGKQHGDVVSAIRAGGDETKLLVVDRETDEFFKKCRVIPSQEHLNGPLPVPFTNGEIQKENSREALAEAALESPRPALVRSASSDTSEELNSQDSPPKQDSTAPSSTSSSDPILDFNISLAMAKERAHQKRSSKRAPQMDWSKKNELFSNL

For YGRKKRRQRRRRQGFERALL-OH [Peptide 1905], the “Intensity of Hit, PDZ EBP50” value [1] was “STRONG”, the “Intensity of Hit, PDZ EBP50 d1” value [2] was “STRONG” and the “Intensity of Hit, PDZ PICK1 F.L.” value [3] was “STRONG”. For the same substance, the “Intensity of Hit, PDZ Shank 1” value [4] was “STRONG”, the “Intensity of Hit, PDZ Shank 2” value [5] was “STRONG” and the “Intensity of Hit, PDZ Shank 3” value [6] was “STRONG”. For the same substance, the “Intensity of Hit, PDZ Tip” value [7] was “STRONG”.

YGRKKRRQRRRRQGLERILL-OH [Peptide 1904] was tested, and the “Intensity of Hit, PDZ AIPC d1” value [8] was “STRONG”, the “Intensity of Hit, PDZ GORASP1 d1” value [9] was “STRONG” and the “Intensity of Hit, PDZ INADL d3” value [10] was “STRONG”. The “Intensity of Hit, PDZ KIAA0316” value [11] was “STRONG”, the “Intensity of Hit, PDZ MINT1 d1, 2” value [12] was “STRONG” and the “Intensity of Hit, PDZ MUPP1d11” value [13] was “STRONG”. For the same substance, the “Intensity of Hit, PDZ MUPP1d3” value [14] was “WEAK”, the “Intensity of Hit, PDZ Magi1 d1” value [15] was “STRONG” and the “Intensity of Hit, PDZ NOS1” value [16] was “STRONG”. For the same substance, the “Intensity of Hit, PDZ PAR3L d3” value [17] was “STRONG”, the “Intensity of Hit, PDZ PAR6 beta” value [18] was “STRONG” and the “Intensity of Hit, PDZ RIM2” value [19] was “STRONG”. The “Intensity of Hit, PDZ RhophilinLike” value [20] was “STRONG”, the “Intensity of Hit, PDZ SITAC-18 d1” value [21] was “STRONG” and the “Intensity of Hit, PDZ SITAC-18 d2” value [22] was “STRONG”. The “Intensity of Hit, PDZ ZO-1 d4” value [23] was “STRONG”.
